Measurements reported in patent US5523408A, “2-carbocyclic and 2-heterocyclic quinoline-4-carboxylic acids and salts thereof useful as immunosuppressive agents” (The Dupont Merck Pharmaceutical Company, priority 1994, dated 1996).
Structures can show the parent of a compound that is named as a salt. Where two headings read alike, the source gives them in different places.

What was measured:
[1] = tested on: human mixed lymphocyte reaction; test: Human Mixed Lymphocyte Reaction Test (MLR); type: cell-based; conditions: 144 h
Text: The human mixed lymphocyte reaction is an in vitro immune response. Inhibition of the human mixed lymphocyte reaction immune response is a standard assay used in the field of immunology, which is considered to be indicative of in vivo immunosuppressive activity. […] The human mixed lymphocyte is also used as a model system for immune reactions involving T-cell-mediated immune responses. Such T-cell-mediated immune responses have been linked to the disease pathology associated with autoimmune diseases, chronic inflammatory diseases, graft versus host disease and organ transplantation rejection.
Blood was obtained by venipuncture from two non-related human donors. Peripheral blood mononuclear cells (PBMC) were isolated from these samples by using the Leuco Prep procedure (Becton-Dickinson). […] Cells from donor A (2×10^5) were incubated with cells from donor B (2×10^5) with or without compound in 96 well round bottom microtiter plates at 37° C., 5% CO2 for 6 days. Eighteen hours prior to harvesting cells from the plates, all wells were pulsed with 1 uCi of tritiated-thymidine. Cells from the plates were washed on day 6 and tritiated-thymidine incorporation was determined using a scintillation counter.

[2] = tested on: contact sensitivity response to 2,4-dinitrofluorobenzene (DNFB); test: Assay of Contact Sensitivity Response to DNFB in Mice; type: in vivo, Balb/c female mice; conditions: oral, 0.25% Methocel; ear swelling 24 hours after DNFB challenge
Text: Contact sensitivity to 2,4-dinitrofluorobenzene (DNFB) has been extensively studied and characterized in the mouse to determine the regulatory mechanisms involved in cell mediated immune responses (Claman et al., Immunol. Rev. 50:105, 1980; Young and Young, "Cutaneous Models of Inflammation for the Evaluation of Topical and Systemic Pharmacological Agents" in Pharmacological Methods in the Control of Inflammation (Chang and Lewis, Eds.), Alan R. Liss, Inc., New York, pp. 215-231, 1989). This is an antigen-specific T-cell mediated inflammatory response that represents delayed-type hypersensitivity reactions seen in both humans and other mammals. This contact sensitivity animal model is used routinely in many laboratories for pharmacological screening of antiinflammatory agents.
The contact sensitivity model used for this study is an extensively used model system for delayed-type hypersensitivity reactions involving cell-mediated immune responses (T-cell mediated responses), which have been linked to the disease pathology associated with organ transplantation rejection, graft versus host disease, multiple sclerosis, myasthenia gravis, systemic lupus erythematosus, rheumatoid arthritis, and other chronic inflammatory diseases and autoimmune diseases for which the T-cell is pivotal to mounting an immune or autoimmune response.
Balb/c female mice (approximately 20 g, Charles River) were sensitized on the shaved abdomen with 25 uL of 0.5% 2,4-dinitrofluorobenzene (DNFB) (Eastman Kodak Co.) in a vehicle of 4:1 acetone: olive oil on days 0 and 1. Mice were ear challenged with 20 uL of 0.2% DNFB in a vehicle of 4:1 acetone: olive oil on day 5. An identical segment of the ear was measured immediately before challenge and 24 hours later with an engineer's micrometer. Ear swelling was expressed as the difference in ear thickness before and after challenge in units of 10-4 inches±SEM. Percent suppression was calculated as: [formula] Compounds (prepared in 0.25% Methocel®) were administered orally. Control animals received only vehicle (0.25% Methocel®). Negative controls were not sensitized on days 0 and 1 but were ear challenged on day 5. Ten mice are typically used per group.
Contact sensitivity results for representative compounds of the present invention are shown in Table B. In this table, + designates greater than 30% suppression of control ear swelling.

[3] = human MLR, tritiated-thymidine incorporation, 6 days, read-out: IC50

SMILES | IC50 [1, 3] | IC50 ([1]; Homo sapiens) | Contact Sensitivity Activity (suppression of control ear swelling) [2]
COc1ccccc1-c1cccc2c1CCN2c1nc2ccc(F)cc2c(C(=O)O)c1C [Ex. 9, 6-fluoro-[4-(2-methoxyphenyl)-1-indolinyl]-3-methylquinoline-4-carboxylic acid, sodium salt] | < 50 nM |  | 
Cc1c(N2CCc3c(-c4cccc(C(F)(F)F)c4)cccc32)nc2ccc(F)cc2c1C(=O)[O-].[Na+] [Ex. 12, 6-fluoro-3-methyl-2-[4-(3-trifluoromethylphenyl)-1-indolinyl]-quinoline-4-carboxylic acid, sodium salt] |  | < 50 nM | + (greater than 30% suppression of control ear swelling)
Cc1ccccc1-c1cccc2c1CCN2c1cc(C(=O)O)c2cc(F)ccc2n1 [Ex. 8, 6-fluoro-2-[4-(2-methylphenyl)-1-indolinyl]-quinoline-4-carboxylic acid, sodium salt] |  | < 50 nM | 
Cc1c(-c2cccc3c(-c4ccccc4)cccc23)nc2ccc(F)cc2c1C(=O)O [Ex. 128, 6-fluoro-3-methyl-2-(5-phenyl-1-naphthyl) quinoline-4-carboxylic acid, sodium salt] | 50 to 10000 nM |  | 
Cc1c(-c2cn(C)c3c(-c4ccccc4)cccc23)nc2ccc(C(F)(F)F)cc2c1C(=O)O [Ex. 73, 3-methyl-2-(7-phenyl-1-methyl-3-indolyl)-6-trifluoromethylquinoline-4-carboxylic acid, sodium salt] |  | < 50 nM | 
Cc1c(-c2cn(C)c3c(-c4ccccc4)cccc23)nc2ccc(F)cc2c1C(=O)[O-].[Na+] [Ex. 75, 6-fluoro-3-methyl-2-(7-phenyl-1-methyl-3-indolyl)-quinoline-4-carboxylic acid, sodium salt] |  | 50 to 10000 nM | + (greater than 30% suppression of control ear swelling)
O=C(O)c1cc(N2CCc3c(-c4ccccc4F)cccc32)nc2ccc(F)cc12 [Ex. 7] | < 50 nM |  | + (greater than 30% suppression of control ear swelling)
Cc1c(-n2ccc3c(-c4ccccc4)cccc32)nc2ccc(F)cc2c1C(=O)O [Ex. 46] | 50 to 10000 nM |  | + (greater than 30% suppression of control ear swelling)
Cc1c(-n2cnc3c(-c4ccccc4)cc(F)cc32)nc2ccc(F)cc2c1C(=O)O [Ex. 68, 6-fluoro-3-methyl-2-(6-fluoro-4-phenyl-1-benzimidazolyl)quinoline-4-carboxylic acid] | 50 to 10000 nM |  | 
Cc1c(N2CCc3c(-c4ccccc4)cccc32)nc2ccc(F)cc2c1C(=O)O [Ex. 1, 6-fluoro-3-methyl-2-(4-phenyl-1-indolinyl)quinoline-4-carboxylic acid] | < 50 nM |  | + (greater than 30% suppression of control ear swelling)
O=C(O)c1cc(N2CCc3c(-c4ccccc4)cccc32)nc2ccc(F)cc12 [Ex. 5, 6-fluoro-2-(4-phenyl-1-indolinyl)-quinoline-4-carboxylic acid, sodium salt] |  | < 50 nM | 
CN(Cc1cnc2nc(N)nc(N)c2n1)c1ccc(C(=O)N[C@@H](CCC(=O)O)C(=O)O)cc1 [methotrexate, reference compound] |  | < 50 nM | + (greater than 30% suppression of control ear swelling)
Cc1c(N2CCc3c(-c4ccccc4F)cccc32)nc2ccc(F)cc2c1C(=O)[O-].[Na+] [Ex. 10, 6-fluoro-2-[4-(2-fluorophenyl)-1-indolinyl]-3-methylquinoline-4-carboxylic acid, sodium salt] |  | < 50 nM | + (greater than 30% suppression of control ear swelling)
Cc1ccccc1-c1cccc2c1CCN2c1nc2ccc(F)cc2c(C(=O)O)c1C [Ex. 11, 6-fluoro-3-methyl-2-[4-(2-methylphenyl)-1-indolinyl]-quinoline-4-carboxylicacid, sodium salt] |  | < 50 nM | 
Cc1c(-n2ccc3c(-c4ccccc4)cccc32)nc2ccc(F)cc2c1C(=O)[O-].[Na+] [Ex. 47, 6-fluoro-3-methyl-2-(4-phenyl-1-indolyl)-quinoline-4-carboxylic acid, sodium salt] |  |  | + (greater than 30% suppression of control ear swelling)
COc1cccc(-c2cccc3c2CCN3c2nc3ccc(F)cc3c(C(=O)O)c2C)c1 [Ex. 13, 6-fluoro-[4-(3-methoxyphenyl)-1-indolinyl]-3-methylquinoline-4-carboxylic acid, sodium salt] | < 50 nM |  | 
Cc1c(N2CCc3c(-c4ccccc4)cccc32)nc2ccc(F)cc2c1C(=O)[O-].[Na+] [Ex. 2, 6-fluoro-3-methyl-2-(4-phenyl-1-indolinyl)quinoline-4-carboxylic acid, sodium salt] |  |  | + (greater than 30% suppression of control ear swelling)
O=C([O-])c1cc(N2CCc3c(-c4cccc(C(F)(F)F)c4)cccc32)nc2ccc(F)cc12.[Na+] [Ex. 6, 6-fluoro-2-[4-(3-trifluoromethylphenyl)-1-indolinyl]-quinoline-4-carboxylicacid, sodium salt] |  | < 50 nM | + (greater than 30% suppression of control ear swelling)
Cc1c(N2CCc3c(-c4ccccc4)cccc32)nc2ccccc2c1C(=O)O [Ex. 4] | 50 to 10000 nM |  | + (greater than 30% suppression of control ear swelling)
